Assay results reported in patent publication US12037344B2, “NLRP3 modulators” (INNATE TUMOR IMMUNITY, INC., priority 2018, dated 2024).

Key:
THP-1 cells = assay: Measurement of IL-1β production, hTRF protocol (second alternative procedure), THP-1 cells; type: cell-based, human; conditions: Homo sapiens, THP-1, IL-1β production, human cells; read-out: NLRP3 hILIB EC50
How it was run: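 Compounds, dilution series starting at a final 10 μM, were incubated 2 hours at 37° C with PMA-differentiated THP-1 cells (50 ng/ml overnight; 50,000 cells/well, 2% FBS RPMI). Released IL-1β quantified in supernatant by hTRF kit with 1:40 antibody dilution, 4° C overnight, 665/615 nm ratio.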

TLR7 = biological target: T1, TLR7 (Homo sapiens, UniProt Q9NYK1); assay: In vitro human TLR7 binding reporter assay (HEK-Blue, NF-kB/AP1-inducible SEAP); type: cell-based; conditions: activity range, read-out: TLR7 Agonist EC50
T1 construct: human HEK-Blue cells co-expressing a TLR7 or TLR8 gene
T1 sequence (Q9NYK1 27-1049): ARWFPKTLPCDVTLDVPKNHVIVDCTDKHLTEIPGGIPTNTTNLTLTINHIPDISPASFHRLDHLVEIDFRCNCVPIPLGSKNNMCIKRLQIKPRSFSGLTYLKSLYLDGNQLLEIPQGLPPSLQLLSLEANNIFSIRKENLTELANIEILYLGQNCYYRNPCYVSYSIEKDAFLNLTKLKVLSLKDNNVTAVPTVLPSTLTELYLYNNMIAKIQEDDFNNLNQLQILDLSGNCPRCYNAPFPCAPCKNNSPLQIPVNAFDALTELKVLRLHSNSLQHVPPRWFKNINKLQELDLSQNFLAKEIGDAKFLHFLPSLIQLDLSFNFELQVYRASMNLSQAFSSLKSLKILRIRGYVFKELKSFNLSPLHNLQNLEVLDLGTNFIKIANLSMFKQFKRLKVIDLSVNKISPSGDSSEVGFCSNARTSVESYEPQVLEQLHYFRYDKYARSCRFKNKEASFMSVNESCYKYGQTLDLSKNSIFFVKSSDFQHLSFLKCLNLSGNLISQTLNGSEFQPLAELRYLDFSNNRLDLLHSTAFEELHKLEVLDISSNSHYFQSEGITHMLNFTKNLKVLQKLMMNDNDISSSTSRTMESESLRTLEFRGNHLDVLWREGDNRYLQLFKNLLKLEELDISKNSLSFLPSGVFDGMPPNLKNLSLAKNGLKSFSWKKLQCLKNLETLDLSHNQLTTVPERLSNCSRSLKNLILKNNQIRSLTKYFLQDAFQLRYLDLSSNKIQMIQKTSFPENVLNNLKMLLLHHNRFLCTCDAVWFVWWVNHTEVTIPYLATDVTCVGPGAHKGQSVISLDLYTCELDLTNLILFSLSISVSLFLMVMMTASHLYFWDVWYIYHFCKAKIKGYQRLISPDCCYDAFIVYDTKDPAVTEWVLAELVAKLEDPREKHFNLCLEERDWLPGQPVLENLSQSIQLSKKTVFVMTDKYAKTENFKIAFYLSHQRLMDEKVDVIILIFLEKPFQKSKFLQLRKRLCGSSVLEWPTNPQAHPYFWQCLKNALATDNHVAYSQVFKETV
How it was run: (§1)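 EC50s come from NF-kB/AP1-driven SEAP secretion in HEK-Blue cells expressing TLR7 or TLR8, measured with Quanti-Blue after an 18 h compound incubation. Maximal response is defined by a 50 μM reference standard.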

TLR8 = biological target: T2, TLR8 (Homo sapiens, UniProt Q9NR97); assay: In vitro human TLR8 binding reporter assay (HEK-Blue, NF-kB/AP1-inducible SEAP); type: cell-based; conditions: activity range, read-out: TLR8 Agonist EC50
T2 construct: human HEK-Blue cells co-expressing a TLR7 or TLR8 gene
T2 sequence (Q9NR97 27-1041): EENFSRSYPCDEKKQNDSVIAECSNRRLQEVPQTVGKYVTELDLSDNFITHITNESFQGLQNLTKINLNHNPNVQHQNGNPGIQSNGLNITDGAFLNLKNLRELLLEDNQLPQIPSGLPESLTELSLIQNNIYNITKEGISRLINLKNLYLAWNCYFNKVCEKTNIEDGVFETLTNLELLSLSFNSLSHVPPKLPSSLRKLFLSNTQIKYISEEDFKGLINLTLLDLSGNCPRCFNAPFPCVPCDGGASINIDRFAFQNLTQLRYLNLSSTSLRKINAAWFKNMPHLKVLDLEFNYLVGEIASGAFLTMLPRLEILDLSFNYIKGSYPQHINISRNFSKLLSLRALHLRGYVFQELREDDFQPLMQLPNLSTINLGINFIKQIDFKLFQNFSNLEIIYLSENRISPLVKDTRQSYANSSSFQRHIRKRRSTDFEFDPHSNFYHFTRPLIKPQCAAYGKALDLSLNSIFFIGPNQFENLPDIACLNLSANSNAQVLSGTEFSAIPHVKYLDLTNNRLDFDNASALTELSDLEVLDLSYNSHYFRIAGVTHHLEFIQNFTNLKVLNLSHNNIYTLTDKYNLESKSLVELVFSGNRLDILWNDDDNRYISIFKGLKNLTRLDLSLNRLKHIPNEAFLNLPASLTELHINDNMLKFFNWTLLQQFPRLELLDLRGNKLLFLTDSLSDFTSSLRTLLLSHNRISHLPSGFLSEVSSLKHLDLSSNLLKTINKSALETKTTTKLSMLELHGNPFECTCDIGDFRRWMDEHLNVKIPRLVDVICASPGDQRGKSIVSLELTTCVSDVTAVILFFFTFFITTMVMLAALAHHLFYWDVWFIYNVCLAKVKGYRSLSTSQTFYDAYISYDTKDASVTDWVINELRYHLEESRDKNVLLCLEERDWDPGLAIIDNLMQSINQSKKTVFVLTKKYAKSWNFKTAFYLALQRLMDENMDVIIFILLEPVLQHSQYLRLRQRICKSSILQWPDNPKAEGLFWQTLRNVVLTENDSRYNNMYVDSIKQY
How it was run: as §1

Row | Compound | EC50 (THP-1 cells) | EC50 (TLR7) | EC50 (TLR8)
1 | CN(C(=O)Cn1cc2c(n1)c(N)nc1cc(-c3cc[nH]n3)ccc12)[C@H]1CCOC1 [Example 549] | 3.95 µM | > 100 µM | > 100 µM
2 | Nc1nc2cc(-c3cc[nH]n3)ccc2c2cn(CC(=O)NCC3CCOCC3)nc12 [Example 550] | 5.01 µM | > 100 µM | > 100 µM
3 | N#CCn1cc2c(n1)c(N)nc1cc(-c3cc[nH]n3)ccc12 [Example 551] | 2.24 µM | > 100 µM | > 100 µM
4 | CN1CCN(C(=O)Cn2cc3c(n2)c(N)nc2cc(-c4cc[nH]n4)ccc23)CC1 [Example 552] | 9.89 µM | > 100 µM | > 100 µM
5 | CN(C)C(=O)Cn1cc2c(N)nc3cc(-n4cccn4)ccc3c2n1 [Example 553] | 2.11 µM | > 100 µM | > 100 µM
6 | CNC(=O)Cn1cc2c(N)nc3cc(-n4cccn4)ccc3c2n1 [Example 554] | 0.46 µM | > 100 µM | > 100 µM
7 | NC(=O)Cn1cc2c(N)nc3cc(-n4cccn4)ccc3c2n1 [Example 555] | 0.33 µM | > 100 µM | > 100 µM
8 | CNC(=O)CCn1cc2c(N)nc3cc(-n4cccn4)ccc3c2n1 [Example 556] | 1.82 µM | > 100 µM | > 100 µM
9 | N#CCCn1cc2c(N)nc3cc(-n4cccn4)ccc3c2n1 [Example 557] | 0.42 µM | > 100 µM | > 100 µM
10 | NC(=O)CCn1cc2c(N)nc3cc(-n4cccn4)ccc3c2n1 [Example 558] | 0.63 µM | > 100 µM | > 100 µM
11 | N#CCCCCn1cc2c(N)nc3cc(-n4cccn4)ccc3c2n1 [Example 559] | 0.6 µM | > 100 µM | > 100 µM
12 | CNC(=O)C(C)n1cc2c(N)nc3cc(-c4ccn[nH]4)ccc3c2n1 (stereo not drawn) [Example 560] | 0.36 µM | > 100 µM | > 100 µM
13 | CC(C(=O)N(C)C)n1cc2c(N)nc3cc(-c4ccn[nH]4)ccc3c2n1 (stereo not drawn) [Example 561] | 0.95 µM | > 100 µM | > 100 µM
14 | CC(C(=O)NC1CCC1)n1cc2c(N)nc3cc(-c4ccn[nH]4)ccc3c2n1 (stereo not drawn) [Example 562] | 0.7 µM | > 100 µM | > 100 µM
15 | CC(C(=O)NCc1ccccn1)n1cc2c(N)nc3cc(-c4ccn[nH]4)ccc3c2n1 (stereo not drawn) [Example 563] | 9.21 µM | > 100 µM | > 100 µM
16 | COC1CCN(C(=O)C(C)n2cc3c(N)nc4cc(-c5ccn[nH]5)ccc4c3n2)CC1 (stereo not drawn) [Example 564] | 15.5 µM | > 100 µM | > 100 µM
17 | CC(C(=O)NCc1cccnc1)n1cc2c(N)nc3cc(-c4ccn[nH]4)ccc3c2n1 (stereo not drawn) [Example 565] | 4.18 µM | > 100 µM | > 100 µM
18 | CC(C(=O)NCC1CCOCC1)n1cc2c(N)nc3cc(-c4ccn[nH]4)ccc3c2n1 (stereo not drawn) [Example 566] | 27.6 µM | > 100 µM | > 100 µM
19 | CC(C(=O)NCC(F)F)n1cc2c(N)nc3cc(-c4ccn[nH]4)ccc3c2n1 (stereo not drawn) [Example 567] | 0.97 µM | > 100 µM | > 100 µM
20 | CC(C(=O)NCCO)n1cc2c(N)nc3cc(-c4ccn[nH]4)ccc3c2n1 (stereo not drawn) [Example 568] | 2.1 µM | > 100 µM | > 100 µM

More lines, now with the values ahead:

Row | EC50 (THP-1 cells) | EC50 (TLR7) | EC50 (TLR8) | Compound
21 | 0.94 µM | > 100 µM | > 100 µM | CC(C)NC(=O)C(C)n1cc2c(N)nc3cc(-c4ccn[nH]4)ccc3c2n1 (stereo not drawn) [Example 569]
22 | 5.13 µM | > 100 µM | > 100 µM | CC(C(=O)N1CCOCC1)n1cc2c(N)nc3cc(-c4ccn[nH]4)ccc3c2n1 (stereo not drawn) [Example 570]
23 | 2.02 µM | > 100 µM | > 100 µM | CC(C(=O)NCc1ccccc1)n1cc2c(N)nc3cc(-c4ccn[nH]4)ccc3c2n1 (stereo not drawn) [Example 571]
24 | 4.41 µM | > 100 µM | > 100 µM | CC(C(=O)NCCCO)n1cc2c(N)nc3cc(-c4ccn[nH]4)ccc3c2n1 (stereo not drawn) [Example 572]
25 | 6.59 µM | > 100 µM | > 100 µM | CCN(CC)CCNC(=O)C(C)n1cc2c(N)nc3cc(-c4ccn[nH]4)ccc3c2n1 (stereo not drawn) [Example 573]
26 | 14 µM | > 100 µM | > 100 µM | CC(C(=O)NC(C)(C)CO)n1cc2c(N)nc3cc(-c4ccn[nH]4)ccc3c2n1 (stereo not drawn) [Example 574]
27 | 19.7 µM | > 100 µM | > 100 µM | CC(C(=O)N1CCS(=O)(=O)CC1)n1cc2c(N)nc3cc(-c4ccn[nH]4)ccc3c2n1 (stereo not drawn) [Example 575]
28 | 1.61 µM | > 100 µM | > 100 µM | CC(C(=O)N1CCC1)n1cc2c(N)nc3cc(-c4ccn[nH]4)ccc3c2n1 (stereo not drawn) [Example 576]
29 | 2.32 µM | > 100 µM | > 100 µM | CC(C(=O)N1CC(F)(F)C1)n1cc2c(N)nc3cc(-c4ccn[nH]4)ccc3c2n1 (stereo not drawn) [Example 577]
30 | 18.6 µM | > 100 µM | > 100 µM | CC(C(=O)N1CC(C)(O)C1)n1cc2c(N)nc3cc(-c4ccn[nH]4)ccc3c2n1 (stereo not drawn) [Example 578]
31 | 4.47 µM | > 100 µM | > 100 µM | CC(C(=O)N1CC(O)C1)n1cc2c(N)nc3cc(-c4ccn[nH]4)ccc3c2n1 (stereo not drawn) [Example 579]
32 | 20.1 µM | > 100 µM | > 100 µM | CC(C(=O)N1CC[C@H](C#N)C1)n1cc2c(N)nc3cc(-c4ccn[nH]4)ccc3c2n1 (stereo partly drawn) [Example 580]
33 | 3.17 µM | > 100 µM | > 100 µM | COCCNC(=O)C(C)n1cc2c(N)nc3cc(-c4ccn[nH]4)ccc3c2n1 (stereo not drawn) [Example 581]
34 | 3.3 µM | > 100 µM | > 100 µM | COCCN(C)C(=O)C(C)n1cc2c(N)nc3cc(-c4ccn[nH]4)ccc3c2n1 (stereo not drawn) [Example 582]
35 | 1.82 µM | > 100 µM | > 100 µM | CCN(CC)C(=O)C(C)n1cc2c(N)nc3cc(-c4ccn[nH]4)ccc3c2n1 (stereo not drawn) [Example 583]
36 | 5.03 µM | > 100 µM | > 100 µM | CC(C(=O)N(C)CCO)n1cc2c(N)nc3cc(-c4ccn[nH]4)ccc3c2n1 (stereo not drawn) [Example 584]
37 | 3.88 µM | > 100 µM | > 100 µM | COCCS(=O)(=O)NCCCn1cc2c(N)nc3cc(-c4ccn[nH]4)ccc3c2n1 [Example 585]
38 | 2.18 µM | > 100 µM | > 100 µM | CS(=O)(=O)NCCCn1cc2c(N)nc3cc(-c4ccn[nH]4)ccc3c2n1 [Example 586]
